{"source": "patent US6590140B1", "about": "“Metal-regulated transporters and uses therefor” (Trustees of Dartmouth College, priority 1996, dated 2003)", "key": {"ZIP1": {"biological_target": "T1, ZIP1 (Arabidopsis thaliana, UniProt O81123)", "T1 construct": "expressed in transfected cells; host or cells: S. cerevisiae ZHY3 (zrt1::LEU2 zrt2::HIS3) with an Arabidopsis cDNA clone in pFL61", "T1 sequence (O81123 29-355)": "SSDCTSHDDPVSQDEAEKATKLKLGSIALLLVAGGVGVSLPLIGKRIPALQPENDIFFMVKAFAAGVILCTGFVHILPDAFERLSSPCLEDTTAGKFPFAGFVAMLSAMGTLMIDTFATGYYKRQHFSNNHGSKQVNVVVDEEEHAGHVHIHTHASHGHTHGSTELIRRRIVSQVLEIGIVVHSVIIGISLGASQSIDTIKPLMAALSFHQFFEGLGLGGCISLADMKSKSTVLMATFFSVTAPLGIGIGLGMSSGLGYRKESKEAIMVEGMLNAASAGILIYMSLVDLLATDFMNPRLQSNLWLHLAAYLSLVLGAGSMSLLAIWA", "test": "Zn uptake by ZHY3 containing the ZIP1 gene", "format": "cell-based", "conditions": "5 minute time course using 10 mM Zn", "description": "(§1) Zinc uptake assays were performed as described previously for iron uptake (Eide et al. (1992) J. Biol. Chem. 267:20774-20781) except that ^65ZnCl2 (Amersham) and LZM-EDTA were substituted for ^59FeCI3 and LIM-EDTA, respectively. Cells were incubated for 5 minutes in LZM-EDTA plus the indicated concentration of ^65Zn, collected on glass fiber filters (Schleicher and Schuell), washed with 10 ml ice-cold SSW (1 mM EDTA, 20 mM trisodium citrate, 1 mM KH2PO4, 1 mM CaCl2, 5 mM MgSO4, 1 mM NaCl pH 4.2), and cell-associated radioactivity was measured by liquid scintillation counting. […] Michaelis-Menten kinetic values were determined using […] software (Intellikinetics, Princeton, N.J.). […] The statistical significance of the differences of values relative to controls was determined with one-way analysis of variance (ANOVA) followed by a Dunnett multiple comparison test. β-galactosidase activity was assayed in cells harvested at an OD600 of 0.5-2.0 as described by Guarente (Guarente, L. (1983) Methods Enzymol. 101:181-191) and activity is expressed as the change in absorbance at 420 nm×1000 divided by (min×ml of culture used×OD600 of the culture). Cell-associated zinc was measured in parallel cultures supplemented with tracer amounts of ^65Zn (10 μM) and nonradioactive zinc to the indicated final concentration. […]"}, "zrt2 (ZHY2) cells": {"system": "zrt2 (ZHY2) cells", "test": "Zinc-limited growth, zrt2 mutant yeast", "format": "cell-based, Saccharomyces cerevisiae", "conditions": "zrt2, LZM, 16 hours", "description": "Strains used were DY1457 (MATα ade6 can1 his3 leu2 trp1 ura3), ZHY1 (AMTα ade6 can1 his3 leu2 trp1 ura3 zrt1::LEU2), ZHY2 (MATα ade6 can1 his3 leu2 trp1 ura3 zrt2::HIS3), and ZHY3 (MATα ade6 can1 his3 leu2 trp1 ura3 zrt1::LEU2 zrt2::HIS3). Yeast were grown in YP or SD media (Sherman et al. (1986) Methods in Yeast Genetics, Cold Spring Harbor Laboratory, Cold Spring Harbor, N.Y.) supplemented with necessary auxotrophic requirements and either 2% glucose or 2% galactose. Zinc-limiting YP and SD agar plates contained either bathophenanthroline disulfonate (BPS, 200 μM) or EDTA (1 mM), respectively. […] The concentrations of free (i.e. unchelated) zinc were calculated using MAXCHELATOR software (Chris Patton, Stanford University). Cell number in liquid cultures was determined by measuring the absorbance of cell suspensions at 600 nm (OD600) and converting to cell number with a standard curve.\nTo further assess the role of the low affinity system as a source of zinc, growth of wild type and zrt2 cells in a zinc-limiting medium, LZM, supplemented with increasing amounts of zinc was examined. […] Number of cell divisions are plotted against [Zn]T and the calculated free zinc concentration ([Zn]F). […]"}, "zrt1zrt2 strain": {"system": "zrt1zrt2 strain", "test": "Cell-associated zinc, zrt1zrt2 strain", "format": "cell-based, Saccharomyces cerevisiae", "description": "as §1"}}, "data": [{"smiles": "[Zn+2]", "note": "[zinc]", "values": [{"measurement": "Zn uptake rate", "setting": "ZIP1", "value": 191, "unit": "fmol/min/10^6 cells"}, {"measurement": "calculated free zinc [Zn]F sufficient for maximum growth yield", "setting": "zrt2 (ZHY2) cells", "value": "~6", "unit": "pM"}, {"measurement": "total zinc sufficient for maximum growth yield", "setting": "zrt2 (ZHY2) cells", "value": 10, "unit": "µM"}, {"measurement": "cell-associated zinc", "setting": "zrt1zrt2 strain; 10 μM total zinc", "value": "5±0.6", "unit": "pmol/10^6 cells"}, {"measurement": "cell-associated zinc", "setting": "zrt1zrt2 strain; 1000 μM total zinc", "value": "86±21", "unit": "pmol/10^6 cells"}]}]}
